Reference: ChEMBL document CHEMBL1201862, “PubChem BioAssay data set” (2004)
Calls of active or inactive are those of the source. Rule as the data show it, for most assays here: actives have a measured EC50 and inactives only a lower limit.

How the values were obtained:
[1] = biological target: Sphingosine 1-phosphate receptor 1 (Homo sapiens, UniProt P21453); type: functional;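 also: Tango beta-arrestin reporter U2OS cells stimulated with S1P near its EC80; inhibitor potency meaning antagonism of receptor activation by the natural agonist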
[2] = biological target: T1, Type-1 angiotensin II receptor (Homo sapiens, UniProt P30556); experiment: antagonism of angiotensin II type 1 receptor – cell-based, uHTS hits, selectivity assay for APJ receptor antagonist project, dose response (AID 463214); type: functional;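 also: antagonist potency against angiotensin II stimulated AT1 response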
T1 sequence (P30556 whole entry): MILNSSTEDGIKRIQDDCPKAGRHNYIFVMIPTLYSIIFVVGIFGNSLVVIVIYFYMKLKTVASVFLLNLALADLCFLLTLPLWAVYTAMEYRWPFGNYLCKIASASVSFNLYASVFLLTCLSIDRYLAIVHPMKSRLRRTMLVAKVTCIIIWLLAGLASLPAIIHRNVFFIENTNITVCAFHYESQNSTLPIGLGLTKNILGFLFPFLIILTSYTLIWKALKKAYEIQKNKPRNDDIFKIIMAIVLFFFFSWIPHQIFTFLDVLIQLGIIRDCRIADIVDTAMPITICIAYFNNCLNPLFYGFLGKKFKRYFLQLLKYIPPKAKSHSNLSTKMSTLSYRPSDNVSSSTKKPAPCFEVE

Beta-galactosidase = Beta-galactosidase (Escherichia coli, UniProt Q8VNN2); experiment: PubChem AID 485352; type: functional
[3] = biological target: Sphingosine 1-phosphate receptor 2 (Homo sapiens, UniProt O95136); experiment: Dose Response Cell Based Assay for Antagonists of the S1P2 Receptor. [Related pubchem assays: 856, 736 ]; type: functional
Wee1-like protein kinase = Wee1-like protein kinase (Homo sapiens, UniProt P30291); experiment: Dose Response Cell-based Assay for Inhibitors of Wee1 Degradation. [Related pubchem assays: 1410, 1321 ]; type: functional
[4] = biological target: Sphingosine 1-phosphate receptor 4 (Homo sapiens, UniProt O95977); experiment: Fluorescence dose response cell-based high throughput screening assay for antagonists of the Sphingosine 1-Phosphate Receptor 4 (S1P4). [Related pubchem assays: 1524 (Confirmation in triplicates.), 1510 (Primary screen.)]; type: functional
[5] = microbe, parasite or virus in culture; type: functional; conditions: Mycobacterium tuberculosis
[6] = biological target: G2/mitotic-specific cyclin-B1 (Homo sapiens, UniProt P14635); experiment: Counterscreen assay for inhibitors of Wee1 degradation: dose response cell-based assay to identify inhibitors of cyclin B degradation. [Related pubchem assays: 1410, 1321 ]; type: functional
[7] = HEK-293T viability loss after treatment – luminescence, T-cell screen hits, cytotoxicity control for TCR NF-kB inhibitor project, dose response (AID 489026); type: functional, cell-based;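 also: cells exposed to compound about 14 hours before the viability readout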
HeLa = experiment: Cytotoxicity counterscreen assay for transcriptional activators of heat shock protein 70 (Hsp70). [Related pubchem assays: 1203, 1252 ]; type: functional; conditions: Homo sapiens;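 also: cells exposed to compound for 16 hours before readout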
INS1 = experiment: INS-1E survival protection against cytokine death – cell-based, luminescence, retest, dose response (AID 449756); type: functional; conditions: Rattus norvegicus;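 also: cell death triggered by IL-1 beta plus TNF-alpha plus IFN-gamma mixture; protective hits raise ATP signal compared with cytokine alone wells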
[8] = biological target: T2, Heat shock factor protein 1 (Mus musculus, UniProt P38532); experiment: decrease of HSF1-responsive luciferase luminescence – cell-based, NIH3T3, dose retest, confirmation (AID 2382); type: functional;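 also: NIH3T3 fibroblasts with HSF1-driven luciferase reporter stressed by proteasome inhibitor MG132; luminescence from HSF1-driven luciferase expression after 8 hours of MG132 stress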
T2 sequence (P38532 whole entry): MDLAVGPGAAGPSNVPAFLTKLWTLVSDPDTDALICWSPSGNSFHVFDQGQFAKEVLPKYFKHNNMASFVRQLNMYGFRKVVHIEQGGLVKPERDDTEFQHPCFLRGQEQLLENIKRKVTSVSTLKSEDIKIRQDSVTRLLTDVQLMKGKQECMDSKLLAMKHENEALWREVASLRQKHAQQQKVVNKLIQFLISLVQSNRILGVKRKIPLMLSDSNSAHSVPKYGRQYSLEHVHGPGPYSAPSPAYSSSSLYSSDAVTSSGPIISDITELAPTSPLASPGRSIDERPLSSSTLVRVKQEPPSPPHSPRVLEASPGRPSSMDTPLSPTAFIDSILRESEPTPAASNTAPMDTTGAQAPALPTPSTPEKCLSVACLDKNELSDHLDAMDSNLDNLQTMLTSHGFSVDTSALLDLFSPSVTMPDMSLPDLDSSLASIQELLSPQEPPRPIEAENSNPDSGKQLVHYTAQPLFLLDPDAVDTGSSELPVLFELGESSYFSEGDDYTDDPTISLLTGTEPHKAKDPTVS

[9] = biological target: T3, Serine/threonine-protein phosphatase (Candida dubliniensis (strain CD36 / CBS 7987 / NCPF 3949 / NRRLY-17841) (Yeast), UniProt B9W6M3); experiment: blockers of CaCl2-induced CDRE-lacZ signaling – S. cerevisiae, luminescence, secondary, dose response (AID 2388); type: functional, cell-based;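 also: yeast reporter cells carrying a calcineurin-responsive lacZ construct stimulated with calcium chloride; luminescent beta-galactosidase reporter signal in whole cells rather than isolated phosphatase activity; potency for inhibition where a drop in reporter signal means calcineurin blockade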
T3 sequence (B9W6M3 whole entry): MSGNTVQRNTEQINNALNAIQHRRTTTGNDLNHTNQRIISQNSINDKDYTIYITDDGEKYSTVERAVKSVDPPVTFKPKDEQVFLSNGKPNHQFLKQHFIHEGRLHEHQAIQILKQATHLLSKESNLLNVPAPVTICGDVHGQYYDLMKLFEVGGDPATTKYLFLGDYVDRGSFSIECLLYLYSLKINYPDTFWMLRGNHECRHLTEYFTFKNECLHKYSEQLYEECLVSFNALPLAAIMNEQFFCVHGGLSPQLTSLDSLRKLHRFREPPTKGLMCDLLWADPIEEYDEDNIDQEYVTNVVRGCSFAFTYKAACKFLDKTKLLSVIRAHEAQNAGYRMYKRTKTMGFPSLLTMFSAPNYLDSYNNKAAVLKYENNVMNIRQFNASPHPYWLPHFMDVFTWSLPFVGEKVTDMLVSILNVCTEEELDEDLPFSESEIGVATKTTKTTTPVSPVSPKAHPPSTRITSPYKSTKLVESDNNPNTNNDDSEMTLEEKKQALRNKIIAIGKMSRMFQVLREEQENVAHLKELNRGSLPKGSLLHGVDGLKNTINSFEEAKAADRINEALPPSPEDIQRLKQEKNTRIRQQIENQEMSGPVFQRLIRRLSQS

HEK293 [10] = experiment: NOD2 signaling inhibitors in MDP-stimulated cells, cell-based, uHTS, luminescence (AID 2001); type: functional; conditions: Homo sapiens
HEK293 [11] = experiment: inhibition of NOD1-driven NF-kB reporter – cell-based, luminescence, uHTS, primary screen (AID 1578); type: functional; conditions: Homo sapiens
BJ [12] = experiment: cells; type: functional, cell-based; conditions: Homo sapiens
BJ [13] = experiment: growth inhibition of engineered Ras-driven BJ cells – cell-based, alamar blue fluorescence, cherrypicked samples, dose response (AID 2631); type: functional; conditions: Homo sapiens;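 also: confirmatory dose-response assay in RAS-dependent BJ fibroblasts engineered with TERT, LT and ST, with cytotoxicity read by fluorescence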
[14] = alpha-synuclein stem-loop luciferase translation blockers – H4 neuroglioma cells, luminescence, confirmation (AID 1988); type: functional, cell-based
[15] = biological target: ATP-dependent molecular chaperone HSP82 (Candida albicans (strain WO-1) (Yeast), UniProt C4YTQ8); experiment: steroid-induced GRE reporter decrease in yeast – S. cerevisiae, luminescence, Hsp90 inhibitor project, dose response (AID 2400); type: functional, cell-based;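 also: beta-galactosidase luminescence from glucocorticoid response element reporter as proxy for Hsp90 function; inhibitor potency where signal loss means Hsp90 inhibition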
[16] = luciferase reporter signal reduction – luminescence, H4-C neuroglioblastoma cells, dose response (AID 2458); type: functional, cell-based;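 also: H4 neuroglioblastoma cells stably carrying a luciferase reporter gene fusion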
[17] = Luminescence Cell-Based Dose Response HTS to Identify Inhibitors of 5'UTR Stem-Loop Driven Prion Protein mRNA Translation in H4 Neuroglioblastoma Cells. [Related pubchem assays: 1827 (Project Summary), 1813 (Primary HTS)]; type: functional
[18] = alpha-synuclein stem-loop translation blockers – luminescence, H4 neuroglioblastoma cells, dose confirmation, confirmation (AID 2454); type: functional, cell-based;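 also: H4 neuroglioblastoma cells carrying an alpha-synuclein 5'UTR luciferase reporter; potency for inhibition of the luciferase signal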
[19] = fluconazole-exposed Candida albicans growth modulators – fluorescence, retest, confirmation (AID 2467); type: functional, cell-based
BJ [20] = experiment: BJ-TERT fibroblast viability loss – cell-based, RAS-independent, luminescence, dose response (AID 1933); type: functional; conditions: Homo sapiens
[21] = DRD fibroblast viability loss – cell-based, non-viral oncogenic, luminescence, dose response (AID 1934); type: functional; conditions: Homo sapiens
HEK293 [22] = experiment: cells; type: functional, cell-based; conditions: Homo sapiens
HEK293 [23] = experiment: cells; type: functional, cell-based; conditions: Homo sapiens; remark: listed apart in the source
cells = type: functional, cell-based
BJ [24] = experiment: BJ-TERT-LT-ST fibroblast viability loss – cell-based, RAS-independent, luminescence, dose response (AID 1935); type: functional; conditions: Homo sapiens;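 also: BJ fibroblasts immortalized with TERT plus LT and ST oncogenes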
[25] = NIH-3T3 fibroblast cytotoxicity, dose response, cytotoxicity control, cell-based, fluorescence, Alamar Blue, secondary assay (AID 2327); type: functional;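 also: NIH-3T3 mouse fibroblasts cultured with fluconazole at 8 µg/mL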
HEK293 [26] = experiment: cells; type: functional, cell-based; conditions: Homo sapiens; remark: listed apart in the source
[27] = luciferase reporter signal suppression in cells – H4 neuroglioma cells, luminescence, dose response (AID 1990); type: functional, cell-based
[28] = biological target: Nucleotide-binding oligomerization domain-containing protein 2 (Homo sapiens, UniProt Q9HC29); experiment: inhibition of NOD2-driven NF-kB reporter – cell-based, luminescence, uHTS, HEK293 (AID 1566); type: functional
[29] = biological target: T4, DNA repair and recombination protein RAD54-like (Homo sapiens, UniProt Q92698); experiment: RAD54 Holliday junction migration blockers – biochemical, fluorescence, cherry-picked samples, dose series, confirmation (AID 651657); type: functional
T4 sequence (Q92698 whole entry): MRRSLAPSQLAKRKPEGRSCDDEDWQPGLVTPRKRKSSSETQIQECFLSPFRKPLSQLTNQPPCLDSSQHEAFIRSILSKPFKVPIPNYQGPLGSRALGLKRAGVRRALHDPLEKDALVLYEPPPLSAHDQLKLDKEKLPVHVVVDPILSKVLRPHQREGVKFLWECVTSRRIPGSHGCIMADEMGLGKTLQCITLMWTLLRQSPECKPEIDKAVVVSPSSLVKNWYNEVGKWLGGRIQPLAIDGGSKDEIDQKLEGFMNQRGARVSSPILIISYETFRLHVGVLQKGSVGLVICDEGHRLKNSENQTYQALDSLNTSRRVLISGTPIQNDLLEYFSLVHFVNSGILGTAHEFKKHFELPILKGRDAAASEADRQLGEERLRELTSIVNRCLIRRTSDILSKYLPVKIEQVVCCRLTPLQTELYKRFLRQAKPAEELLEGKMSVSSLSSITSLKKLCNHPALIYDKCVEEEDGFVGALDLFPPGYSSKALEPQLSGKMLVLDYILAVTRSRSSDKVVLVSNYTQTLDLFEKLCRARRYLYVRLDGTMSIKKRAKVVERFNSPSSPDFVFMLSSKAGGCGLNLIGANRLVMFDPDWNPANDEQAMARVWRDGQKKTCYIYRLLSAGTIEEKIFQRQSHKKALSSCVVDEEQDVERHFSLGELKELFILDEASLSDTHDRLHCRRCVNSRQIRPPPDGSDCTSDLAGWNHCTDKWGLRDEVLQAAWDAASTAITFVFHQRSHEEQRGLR

[30] = biological target: Luciferin 4-monooxygenase (Photinus pyralis, UniProt P08659); experiment: Counter Screen for Luciferase-based Assay Positives. [Related pubchem assays: 620, 618, 411 ]
Luciferin 4-monooxygenase, sequence (P08659 whole entry): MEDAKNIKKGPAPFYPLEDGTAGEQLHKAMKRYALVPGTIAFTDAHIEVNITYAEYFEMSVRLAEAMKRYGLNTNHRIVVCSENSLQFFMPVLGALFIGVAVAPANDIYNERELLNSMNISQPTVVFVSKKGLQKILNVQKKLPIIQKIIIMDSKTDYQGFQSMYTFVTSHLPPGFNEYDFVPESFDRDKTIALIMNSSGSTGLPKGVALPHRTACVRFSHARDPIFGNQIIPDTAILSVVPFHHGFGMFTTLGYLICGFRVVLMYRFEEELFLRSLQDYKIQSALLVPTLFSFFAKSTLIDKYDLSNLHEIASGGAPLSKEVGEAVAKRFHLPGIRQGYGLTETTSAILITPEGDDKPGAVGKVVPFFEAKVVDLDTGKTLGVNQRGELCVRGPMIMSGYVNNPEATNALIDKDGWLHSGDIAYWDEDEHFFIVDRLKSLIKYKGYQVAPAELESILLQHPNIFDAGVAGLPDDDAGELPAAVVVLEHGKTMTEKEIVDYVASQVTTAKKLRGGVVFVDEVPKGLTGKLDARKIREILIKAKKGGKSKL

Sphingosine 1-phosphate receptor 2, sequence (O95136 whole entry): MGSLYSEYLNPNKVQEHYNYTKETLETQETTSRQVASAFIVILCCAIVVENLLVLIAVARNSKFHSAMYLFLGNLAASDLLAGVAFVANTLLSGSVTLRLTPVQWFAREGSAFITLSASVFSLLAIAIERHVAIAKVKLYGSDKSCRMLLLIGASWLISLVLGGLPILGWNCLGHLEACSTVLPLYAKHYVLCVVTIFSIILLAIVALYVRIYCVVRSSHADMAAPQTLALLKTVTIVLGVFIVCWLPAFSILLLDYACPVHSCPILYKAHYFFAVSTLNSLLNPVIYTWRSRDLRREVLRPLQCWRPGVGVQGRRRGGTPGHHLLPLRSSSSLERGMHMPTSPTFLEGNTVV
ATP-dependent molecular chaperone HSP82, sequence (C4YTQ8 whole entry, the tested form may be a part): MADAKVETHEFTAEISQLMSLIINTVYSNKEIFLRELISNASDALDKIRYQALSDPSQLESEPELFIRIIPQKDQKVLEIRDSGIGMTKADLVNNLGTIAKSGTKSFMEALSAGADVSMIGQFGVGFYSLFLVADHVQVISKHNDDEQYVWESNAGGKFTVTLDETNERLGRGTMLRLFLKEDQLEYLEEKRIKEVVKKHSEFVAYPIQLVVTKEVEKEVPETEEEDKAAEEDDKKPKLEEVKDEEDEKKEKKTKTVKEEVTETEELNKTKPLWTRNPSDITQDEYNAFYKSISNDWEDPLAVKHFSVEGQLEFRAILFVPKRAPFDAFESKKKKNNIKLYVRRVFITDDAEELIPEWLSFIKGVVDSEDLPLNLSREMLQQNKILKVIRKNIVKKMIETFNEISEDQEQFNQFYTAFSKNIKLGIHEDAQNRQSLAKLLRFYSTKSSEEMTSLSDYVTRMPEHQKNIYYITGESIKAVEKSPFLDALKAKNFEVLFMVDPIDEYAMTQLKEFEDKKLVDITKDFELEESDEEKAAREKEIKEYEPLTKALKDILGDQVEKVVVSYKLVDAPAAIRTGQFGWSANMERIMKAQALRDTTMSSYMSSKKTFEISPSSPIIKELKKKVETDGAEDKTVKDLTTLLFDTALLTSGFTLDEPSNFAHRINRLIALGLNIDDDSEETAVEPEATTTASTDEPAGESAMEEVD
G2/mitotic-specific cyclin-B1, sequence (P14635 whole entry): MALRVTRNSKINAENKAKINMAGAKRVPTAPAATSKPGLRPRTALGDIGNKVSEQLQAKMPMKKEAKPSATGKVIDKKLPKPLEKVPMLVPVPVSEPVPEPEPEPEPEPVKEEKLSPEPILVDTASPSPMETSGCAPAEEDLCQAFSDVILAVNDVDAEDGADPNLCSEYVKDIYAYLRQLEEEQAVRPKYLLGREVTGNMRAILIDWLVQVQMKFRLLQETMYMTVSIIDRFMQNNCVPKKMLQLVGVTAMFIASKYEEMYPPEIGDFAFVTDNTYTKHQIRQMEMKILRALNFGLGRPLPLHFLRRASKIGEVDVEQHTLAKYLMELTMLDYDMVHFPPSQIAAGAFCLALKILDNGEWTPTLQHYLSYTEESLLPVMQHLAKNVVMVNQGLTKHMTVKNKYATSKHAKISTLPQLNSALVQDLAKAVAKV
Wee1-like protein kinase, sequence (P30291 whole entry): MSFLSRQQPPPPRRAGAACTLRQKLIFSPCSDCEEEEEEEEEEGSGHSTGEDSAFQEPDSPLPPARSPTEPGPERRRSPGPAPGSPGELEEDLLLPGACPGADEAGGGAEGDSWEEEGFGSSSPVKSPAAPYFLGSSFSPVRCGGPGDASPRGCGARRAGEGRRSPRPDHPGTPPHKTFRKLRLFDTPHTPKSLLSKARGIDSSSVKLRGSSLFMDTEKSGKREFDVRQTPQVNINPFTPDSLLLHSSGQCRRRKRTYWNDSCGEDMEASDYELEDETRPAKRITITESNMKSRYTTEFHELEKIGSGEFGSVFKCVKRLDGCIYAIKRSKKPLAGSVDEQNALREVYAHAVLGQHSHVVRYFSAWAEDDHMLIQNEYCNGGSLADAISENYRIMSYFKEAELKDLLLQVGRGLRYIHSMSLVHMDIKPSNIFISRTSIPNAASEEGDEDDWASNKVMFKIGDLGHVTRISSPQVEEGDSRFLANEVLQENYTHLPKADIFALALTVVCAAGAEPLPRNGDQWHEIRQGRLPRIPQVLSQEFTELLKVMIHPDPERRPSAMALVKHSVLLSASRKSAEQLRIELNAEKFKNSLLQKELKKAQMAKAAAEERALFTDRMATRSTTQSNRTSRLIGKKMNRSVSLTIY
Sphingosine 1-phosphate receptor 4, sequence (O95977 whole entry): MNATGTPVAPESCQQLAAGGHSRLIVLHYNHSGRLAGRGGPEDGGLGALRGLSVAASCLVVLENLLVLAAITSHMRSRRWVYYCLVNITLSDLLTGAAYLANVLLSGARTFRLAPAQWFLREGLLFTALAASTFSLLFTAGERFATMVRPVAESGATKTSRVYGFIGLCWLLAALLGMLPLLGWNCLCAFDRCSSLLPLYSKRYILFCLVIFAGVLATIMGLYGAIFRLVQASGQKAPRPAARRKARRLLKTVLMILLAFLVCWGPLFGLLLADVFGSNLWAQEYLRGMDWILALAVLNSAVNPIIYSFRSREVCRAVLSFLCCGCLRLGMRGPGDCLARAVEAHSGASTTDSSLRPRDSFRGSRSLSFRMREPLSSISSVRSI
Beta-galactosidase, sequence (Q8VNN2 whole entry): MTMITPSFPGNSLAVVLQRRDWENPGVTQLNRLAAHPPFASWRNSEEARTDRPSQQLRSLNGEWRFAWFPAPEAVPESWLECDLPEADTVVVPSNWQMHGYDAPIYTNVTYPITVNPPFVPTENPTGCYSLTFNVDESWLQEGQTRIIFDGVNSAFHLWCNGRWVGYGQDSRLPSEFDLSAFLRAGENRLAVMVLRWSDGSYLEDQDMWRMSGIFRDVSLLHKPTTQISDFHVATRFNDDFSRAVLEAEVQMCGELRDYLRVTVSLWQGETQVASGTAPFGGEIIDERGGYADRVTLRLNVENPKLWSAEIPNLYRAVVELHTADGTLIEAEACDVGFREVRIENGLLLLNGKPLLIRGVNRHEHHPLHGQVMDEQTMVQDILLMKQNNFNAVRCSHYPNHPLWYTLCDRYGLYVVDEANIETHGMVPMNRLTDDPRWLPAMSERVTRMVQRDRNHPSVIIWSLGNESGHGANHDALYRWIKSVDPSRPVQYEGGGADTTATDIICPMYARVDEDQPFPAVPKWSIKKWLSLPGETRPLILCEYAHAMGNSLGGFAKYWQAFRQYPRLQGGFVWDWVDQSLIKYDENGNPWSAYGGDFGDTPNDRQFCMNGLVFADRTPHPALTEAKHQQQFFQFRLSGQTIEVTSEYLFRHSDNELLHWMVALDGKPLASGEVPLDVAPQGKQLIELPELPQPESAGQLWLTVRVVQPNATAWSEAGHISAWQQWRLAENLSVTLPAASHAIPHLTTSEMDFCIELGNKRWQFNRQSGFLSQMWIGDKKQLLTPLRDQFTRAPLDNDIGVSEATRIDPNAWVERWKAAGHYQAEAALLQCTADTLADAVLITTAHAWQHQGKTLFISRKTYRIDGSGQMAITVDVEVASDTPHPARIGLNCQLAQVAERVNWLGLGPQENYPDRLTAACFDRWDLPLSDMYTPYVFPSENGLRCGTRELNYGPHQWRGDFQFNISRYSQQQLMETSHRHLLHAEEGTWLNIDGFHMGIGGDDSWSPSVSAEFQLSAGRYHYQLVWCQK
Sphingosine 1-phosphate receptor 1, sequence (P21453 whole entry): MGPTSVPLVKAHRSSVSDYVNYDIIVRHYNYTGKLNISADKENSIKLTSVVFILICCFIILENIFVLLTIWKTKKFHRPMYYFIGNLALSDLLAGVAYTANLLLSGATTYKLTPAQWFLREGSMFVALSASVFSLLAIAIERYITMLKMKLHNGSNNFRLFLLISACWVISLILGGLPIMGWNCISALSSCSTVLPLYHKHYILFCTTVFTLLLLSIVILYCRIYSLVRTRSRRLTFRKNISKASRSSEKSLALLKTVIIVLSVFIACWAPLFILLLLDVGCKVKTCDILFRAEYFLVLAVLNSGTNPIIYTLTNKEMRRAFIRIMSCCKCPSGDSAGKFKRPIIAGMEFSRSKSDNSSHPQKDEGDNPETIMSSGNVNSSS

CCCCS(=O)(=O)/C=C\C=C/S(=O)(=O)CCCC
IC50 [1]: 13.7 µM (not active)
IC50 [2]: 3.67 µM (active)
EC50 (Beta-galactosidase): > 40 µM (inactive)
IC50 [3]: 4.5 µM (active)
EC50 (Wee1-like protein kinase): > 49.7 µM (not active)
IC50 [4]: 1.28 µM (active)
CC50 [5]: 3.13 µM (active)
EC50 [6]: > 5.53 µM (active)
IC50 [7]: 52.6 µM (inactive)
CC50 (HeLa): 9.43 µM (active)
AC50 (INS1): 3.25 µM (active)
EC50 [8]: 3.04 µM (active)

COc1ccc(-c2nnc(NC(=O)c3ccc(S(=O)(=O)N4CCc5ccccc5C4)cc3)o2)cc1
EC50 [9]: > 180 µM (inactive)
IC50 (HEK293 [10]): 19.6 µM (inactive)
EC50 (HEK293 [11]): > 20 µM (inactive)
EC50 (BJ [12]): 132 µM (inconclusive)
EC50 (BJ [13]): 9.02 µM (active)
EC50 [14]: 0.139 µM (active)
EC50 [15]: > 150 µM (inactive)
EC50 [16]: > 12 µM (not active)
EC50 [17]: < 0.1 µM (active)
EC50 [18]: > 12 µM (not active)
EC50 [19]: 0.256 µM (active)
EC50 (BJ [20]): 92.6 µM (active)
EC50 [21]: 90.3 µM (active)
IC50 (HEK293 [22]): > 20 µM (inactive)
IC50 (HEK293 [23]): > 20 µM (inactive)
EC50 (cells): > 12 µM (not active)
EC50 (BJ [24]): > 150 µM (inconclusive)
EC50 [25]: > 150 µM (inactive)
IC50 (HEK293 [26]): > 20 µM (inactive)
EC50 [27]: < 0.1 µM (active)
EC50 [28]: > 20 µM (inactive)

COc1ccc2nc(-c3ccc(N)cc3)[nH]c2c1
AC50 [29]: 35.1 µM (active)
EC50 [30]: 0.38 µM (active)
